# Assays:
# osteoclasts = test: Osteoclast function (pit depth on dentine slices); type: cell-based, mouse; conditions: PI3K inhibitors 100 nM, 72 hr
# Description: To analyze the effect of the present PI3Kδ inhibitor compounds on osteoclasts, mouse bone marrow cells are isolated and differentiated to osteoclasts by treating the cells with Macrophage Colony Stimulating Factor^−1 (mCSF^−1) and Osteoprotegerin Ligand (OPGL) in serum-containing medium (αMEM with 10% heat-inactivated FBS; Sigma) for 3 days. On day four, when the osteoclasts had developed, the medium is removed and cells are harvested. The osteoclasts are plated on dentine slices at 10^5 cells/well in growth medium, i.e., αMEM containing 1% serum and 2% BSA with […] OPGL and 10 ng/mL mCSF^−1. After 3 hr, the medium is changed to 1% serum and 1% BSA, with or without osteopontin (25 μg/mL) and the PI3K inhibitors (100 nM). The medium is changed every 24 hours with fresh osteopontin and the inhibitors. At 72 hr, the medium is removed, and the dentine surfaces are washed with water to remove cell debris and stained with acid hematoxylin. Excess stain is washed and the pit depths are quantitated using confocal microscopy.
# Class I PI 3-kinases = conditions: read-out: IC50 values against each of these PI 3-kinases; cited from earlier work
# neutrophil = conditions: cited from earlier work
SMILES,inhibition of osteoclast activity (osteoclasts),IC50 (Class I PI 3-kinases) [nM],neutrophil migration (neutrophil),superoxide release (neutrophil)
O=c1cc(N2CCOCC2)oc2c(-c3ccccc3)cccc12 [LY294002],inhibited osteoclast activity,~1000,block,block
COC[C@H]1OC(=O)c2coc3c2[C@@]1(C)C1=C(C3=O)[C@@H]2CCC(=O)[C@@]2(C)C[C@H]1OC(C)=O [wortmannin],inhibited osteoclast activity,–,block,block

# From US8980901B2, “5-fluoro-3-phenyl-2[1-(9H-purin-6-ylamino)propyl]-3H-quinazolin-4-one and 6-fluoro-3-phenyl-2-[1-(9H-purin-6-ylamino)ethyl]-3H-quinazolin-4-one as inhibitors of human phosphatidylinositol 3-kinase delta” (Icos Corporation, priority 2004, dated 2015)
